# Assay results from patent US20160016907A1, “PYRIDINE DERIVATIVES AS MUSCARINIC M1 RECEPTOR POSITIVE ALLOSTERIC MODULATORS” (PFIZER INC., priority 2014, published 2016).
# Biological target: T1, human M1 muscarinic acetylcholine receptors (Homo sapiens, UniProt P11229)
# T1 sequence (P11229 1-460): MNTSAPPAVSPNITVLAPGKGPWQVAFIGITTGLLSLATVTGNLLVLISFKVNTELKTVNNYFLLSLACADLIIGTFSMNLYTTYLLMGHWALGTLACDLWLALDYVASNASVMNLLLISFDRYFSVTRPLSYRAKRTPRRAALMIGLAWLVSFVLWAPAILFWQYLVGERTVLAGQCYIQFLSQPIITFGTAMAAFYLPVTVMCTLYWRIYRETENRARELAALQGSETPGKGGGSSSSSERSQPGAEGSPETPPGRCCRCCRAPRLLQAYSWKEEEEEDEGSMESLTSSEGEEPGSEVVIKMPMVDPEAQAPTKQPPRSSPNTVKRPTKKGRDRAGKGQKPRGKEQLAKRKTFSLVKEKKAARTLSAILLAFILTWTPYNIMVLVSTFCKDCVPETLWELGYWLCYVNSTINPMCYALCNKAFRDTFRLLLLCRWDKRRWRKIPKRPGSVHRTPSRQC
# Assay: M1 FLIPR assay (PAM, intracellular calcium)
# Type: cell-based
# Settings: potentiation of EC10-EC30 acetylcholine, values marked a: geometric mean of ≧7 determinations, read-out: M1 PAM Inflection Point (μM) Geometric mean of 2-6 determinations (unless otherwise indicated)
# Protocol: This assay was designed to select and characterize compounds that affect the activity of human M1 muscarinic acetylcholine receptors (Similar M1 PAM FLIPR assays can be found, for example, at U.S. Pat. No. 8,664,234). Human M1 receptors were stably expressed in Chinese hamster ovary (CHO) cells (HD Bioscience). The effect of test compounds on intracellular calcium was measured on an FLIPR Tetra (Molecular Devices) using the Fluo-8, AM calcium dye (Molecular Probes) with a red dye quenching agent (Sigma).
# CHO cells expressing hM1 cells had been previously cultured and frozen in assay ready vials. Cell vials were thawed, then plated at a density of 10,000 cells per well in a 384 well black wall, clear bottom plate (Greiner #781090) and incubated overnight at 37 degrees C. with 5% CO2. Cells were grown and plated in F12 nutrient media (Gibco BRL #21700-075) supplemented with 10% FBS (Hyclone #CH30160.03) and Pen/Strep (Gibco #15070-063).
# After overnight incubation, cell plates were removed from the incubator and the growth media was discarded and replaced with loading solution containing the following: 2 μM Fluo-8-AM (Molecular Probes #F14242), 2 mM Probenecid (Sigma #P8761), lx Acid Red 1 (Sigma #210633), in HBSS buffer containing (grams/L): 0.1 CaCl2, 0.1 MgCl2*6H2O, 0.049 MgSO4, 0.4 KCl, 0.06 KH2PO4, 8.06 NaCl, 0.12 Na2HPO4*12H2O, 1.1 D-glucose*H2O, 0.35 NaHCO3, 4.766 HEPES, pH 7.4. The plate was incubated in the loading solution at 37 degrees C. in the dark for 1 hour.
# Test compounds were initially prepared as 100% DMSO stock solutions, then transferred and serially diluted in 384-well compound plates (Greiner #784201). Each compound was tested at 10 concentrations in duplicate per experiment. Positive and negative controls for positive allosteric modulator evaluation were 30 μM acetylcholine (Ach) and an EC10-EC30 concentration of acetylcholine, approximately 2 nM but could be adjusted for each experiment to maintain the EC10-EC30 range.
# After the 1-hour dye loading incubation, test compounds were added to the cell plate containing Fluo-8. Approximately 10 minutes after compound addition, an EC10-EC30 concentration of acetylcholine was added to each well and the fluorescence measured to determine the PAM potentiation of the compound.
# Data was exported from the FLIPR Tetra as maximum fluorescence/minimum fluorescence for each well. The percent effect for each compound well was determined using the mean values for the positive and negative controls on each plate for each read. Percent effect was 100*(compound negative control)/(positive control negative control). Dose response curves were fitted to the compound percent effect data using a 4-parameter logistic fit model to determine PAM (positive allosteric modulator) Inflection Point values. Compounds with inverted U dose response curves had the concentrations greater than the concentration giving the peak response excluded from the fit. Data was reported as Inflection Point. The compounds of Examples 1-72 had activity according to this assay, generally with an Inflection Point (IP) of 10 μM or less (using Inflection Point as a measure of activity). Such a result is indicative of the intrinsic activity of the compounds of the invention as M1 allosteric modulators.
row,SMILES,EC50
1,"O=C(N[C@H]1CCOC[C@@H]1O)c1cc(Cc2ccc(-n3cccn3)cc2)c(C(F)F)cn1 [Example 54, 5-(difluoromethyl)-N-[(3R,4S)-3-hydroxytetrahydro-2H-pyran-4-yl]-4-[4-(1H-pyrazol-1-yl)benzyl]pyridine-2-carboxamide]",0.198 µM
2,"Cc1cnc(C(=O)N[C@H]2CCOC[C@@H]2O)cc1[C@@H](F)c1ccc(-n2cccn2)cc1 [Example 55, 4-{(S)-Fluoro[4-(1H-pyrazol-1-yl)phenyl]methyl}-N-[(3R,4S)-3-hydroxytetrahydro-2H-pyran-4-yl]-5-methylpyridine-2-carboxamide]",> 9.12 µM
3,"Cc1cnc(C(=O)N[C@H]2CCOC[C@@H]2O)cc1[C@H](F)c1ccc(-n2cccn2)cc1 [Example 56, 4-{(R)-Fluoro[4-(1H-pyrazol-1-yl)phenyl]methyl}-N-[(3R,4S)-3-hydroxytetrahydro-2H-pyran-4-yl]-5-methylpyridine-2-carboxamide]",0.03 µM
4,"Cc1cnc(C(=O)N[C@H]2CCOC[C@@H]2O)cc1Cc1ccc(-c2cocn2)cc1 [Example 57, N-[(3R,4S)-3-Hydroxytetrahydro-2H-pyran-4-yl]-5-methyl-4-[4-(1,3-oxazol-4-yl)benzyl]pyridine-2-carboxamide]",0.144 µM
5,"COc1cnc(C(=O)N[C@H]2CCOC[C@@H]2O)cc1Cc1ccc(-c2coc(C)n2)cc1 [Example 58, N-[(3R,4S)-3-Hydroxytetrahydro-2H-pyran-4-yl]-5-methoxy-4-[4-(2-methyl-1,3-oxazol-4-yl)benzyl]pyridine-2-carboxamide]",0.086 µM
6,"Cc1cnc(C(=O)N[C@H]2CCOC[C@@H]2O)cc1Cc1ccc(-c2cn(C)nc2C)cc1 [Example 61, 4-[4-(1,3-Dimethyl-1H-pyrazol-4-yl)benzyl]-N-[(3R,4S)-3-hydroxytetrahydro-2H-pyran-4-yl]-5-methylpyridine-2-carboxamide]",0.116 µM
7,"O=C(N[C@H]1CCOC[C@@H]1O)c1cc(Cc2ccc(-n3cccn3)cc2)c(OC(F)F)cn1 [Example 62, 5-(difluoromethoxy)-N-[(3R,4S)-3-hydroxytetrahydro-2H-pyran-4-yl]-4-[4-(1H-pyrazol-1-yl)benzyl]pyridine-2-carboxamide]",0.129 µM
8,"Cc1cnc(C(=O)N[C@H]2CCOC[C@@H]2O)cc1Cc1ccc(-c2cnn(C)c2)nc1 [Example 65, N-[(3R,4S)-3-hydroxytetrahydro-2H-pyran-4-yl]-5-methyl-4-{[6-(1-methyl-1H-pyrazol-4-yl)pyridin-3-yl]methyl}pyridine-2-carboxamide]",0.18 µM
9,"Cc1cnc(C(=O)N[C@H]2CCOC[C@@H]2O)cc1Cc1ccc(-c2cn[nH]c2)cc1 [Example 66, N-[(3R,4S)-3-hydroxytetrahydro-2H-pyran-4-yl]-5-methyl-4-[4-(1H-pyrazol-4-yl)benzyl]pyridine-2-carboxamide]",0.114 µM
10,"Cc1cnc(C(=O)N[C@H]2CCOC[C@@H]2O)cc1Cc1ccc(-c2cnn(C)c2)cc1 [Example 67, N-[(3R,4S)-3-hydroxytetrahydro-2H-pyran-4-yl]-5-methyl-4-[4-(1-methyl-1H-pyrazol-4-yl)benzyl]pyridine-2-carboxamide]",0.052 µM
11,"COc1cnc(C(=O)N[C@H]2CCOC[C@@H]2O)cc1Cc1ccc(-c2cscn2)cc1 [Example 68, N-[(3R,4S)-3-hydroxytetrahydro-2H-pyran-4-yl]-5-methoxy-4-[4-(1,3-thiazol-4-yl)benzyl]pyridine-2-carboxamide]",0.074 µM
12,"Cc1nc(-c2ccc(Cc3cc(C(=O)N[C@H]4CCOC[C@@H]4O)ncc3C)cc2)cs1 [Example 69, N-[(3R,4S)-3-hydroxytetrahydro-2H-pyran-4-yl]-5-methyl-4-[4-(2-methyl-1,3-thiazol-4-yl)benzyl]pyridine-2-carboxamide]",0.048 µM
13,"COc1cnc(C(=O)N[C@H]2CCCC[C@@H]2O)cc1Cc1ccc(-n2cccn2)cc1 [Example 70, N-[(1S,2S)-2-hydroxycyclohexyl]-5-methoxy-4-[4-(1H-pyrazol-1-yl)benzyl]pyridine-2-carboxamide]",0.104 µM
14,"COc1cnc(C(=O)N[C@H]2CCCC[C@@H]2O)cc1Cc1ccc(-c2cocn2)cc1 [Example 71, N-[(1S,2S)-2-hydroxycyclohexyl]-5-methoxy-4-[4-(1,3-oxazol-4-yl)benzyl]pyridine-2-carboxamide]",0.125 µM
15,"COc1cnc(C(=O)N[C@H]2CCCC[C@@H]2O)cc1Cc1ccc(-c2coc(C)n2)cc1 [Example 72, N-[(1S,2S)-2-hydroxycyclohexyl]-5-methoxy-4-[4-(2-methyl-1,3-oxazol-4-yl)benzyl]pyridine-2-carboxamide]",0.142 µM
